ChEMBL document CHEMBL3751764, “Synthesis and in vitro antiproliferative activity of novel pyrazolo[3,4-d]pyrimidine derivatives” (Medchemcomm, 2015)
pIC50: −log10 of the molar value. Calls of active or inactive are those of the source. The calls are words filed in the database; no cut-off is given here.

Assays:
[1] = biological target: Platelet-derived growth factor receptor (Homo sapiens) (UniProt P09619+P16234); assay: Inhibition of PDGFR (unknown origin) at 10 uM after 20 to 40 mins by liquid scintillation counting analysis in presence of […]; type: protein-complex assay
[2] = Cytotoxicity against human RPMI8226 cells after 72 hrs by SRB assay; type: functional; conditions: RPMI-8226, 72 h
[3] = tested on: CCRF-CEM; assay: Cytotoxicity against human CCRF-CEM cells after 72 hrs by SRB assay; type: functional
[4] = tested on: A549; assay: Cytotoxicity against human A549 cells after 72 hrs by SRB assay; type: functional, cell-based; conditions: A549, 72 h
[5] = Cytotoxicity against human HOP62 cells after 72 hrs by SRB assay; type: functional; conditions: HOP-62, 72 h
[6] = tested on: NCI-H226; assay: Cytotoxicity against human NCI-H226 cells after 72 hrs by SRB assay; type: functional; conditions: NCI-H226, 72 h
[7] = tested on: NCI-H322M; assay: Cytotoxicity against human NCI-H322M cells after 72 hrs by SRB assay; type: functional
[8] = tested on: NCI-H460; assay: Cytotoxicity against human NCI-H460 cells after 72 hrs by SRB assay; type: functional; conditions: NCI-H460, 72 h
[9] = tested on: NCI-H522; assay: Cytotoxicity against human NCI-H522 cells after 72 hrs by SRB assay; type: functional; conditions: NCI-H522, 72 h
[10] = Cytotoxicity against human HCT116 cells after 72 hrs by SRB assay; type: functional; conditions: HCT-116, 72 h
[11] = tested on: KM12; assay: Cytotoxicity against human KM12 cells after 72 hrs by SRB assay; type: functional; conditions: KM12, 72 h
[12] = Cytotoxicity against human SF539 cells after 72 hrs by SRB assay; type: functional; conditions: SF-539, 72 h
[13] = Cytotoxicity against human SNB19 cells after 72 hrs by SRB assay; type: functional; conditions: SNB-19, 72 h
[14] = Cytotoxicity against human SNB75 cells after 72 hrs by SRB assay; type: functional; conditions: SNB-75, 72 h
[15] = Cytotoxicity against human LOXIMVI cells after 72 hrs by SRB assay; type: functional; conditions: LOX IMVI
[16] = tested on: Malme-3M; assay: Cytotoxicity against human MALME-3M cells after 72 hrs by SRB assay; type: functional
[17] = tested on: MDA-MB-435; assay: Cytotoxicity against human MDA-MB-435 cells after 72 hrs by SRB assay; type: functional; conditions: MDA-MB-435, 72 h
[18] = tested on: SK-MEL-28; assay: Cytotoxicity against human SK-MEL-28 cells after 72 hrs by SRB assay; type: functional; conditions: SK-MEL-28, 72 h
[19] = tested on: SK-MEL-5; assay: Cytotoxicity against human SK-MEL-5 cells after 72 hrs by SRB assay; type: functional; conditions: SK-MEL-5, 72 h
[20] = Cytotoxicity against human UACC257 cells after 72 hrs by SRB assay; type: functional; conditions: UACC-257, 72 h
[21] = Cytotoxicity against human IGROV1 cells after 72 hrs by SRB assay; type: functional; conditions: IGROV-1, 72 h
[22] = Cytotoxicity against human OVCAR3 cells after 72 hrs by SRB assay; type: functional; conditions: OVCAR-3, 72 h
[23] = Cytotoxicity against human OVCAR5 cells after 72 hrs by SRB assay; type: functional; conditions: OVCAR-5, 72 h
[24] = Cytotoxicity against human NCI-ADR-RES cells after 72 hrs by SRB assay; type: functional
[25] = tested on: 786-0; assay: Cytotoxicity against human 786-0 cells after 72 hrs by SRB assay; type: functional; conditions: 786-0, 72 h
[26] = tested on: A498; assay: Cytotoxicity against human A498 cells after 72 hrs by SRB assay; type: functional; conditions: A498, 72 h
[27] = Cytotoxicity against human Caki1 cells after 72 hrs by SRB assay; type: functional; conditions: CAKI-1, 72 h
[28] = Cytotoxicity against human RXF393 cells after 72 hrs by SRB assay; type: functional; conditions: RXF 393, 72 h
[29] = tested on: SN12C; assay: Cytotoxicity against human SN12C cells after 72 hrs by SRB assay; type: functional
[30] = Cytotoxicity against human DU145 cells after 72 hrs by SRB assay; type: functional; conditions: DU-145, 72 h
[31] = tested on: MCF7; assay: Cytotoxicity against human MCF7 cells after 72 hrs by SRB assay; type: functional, cell-based; conditions: MCF7, 72 h
[32] = Cytotoxicity against human Hs 578T cells after 72 hrs by SRB assay; type: functional
[33] = tested on: T47D; assay: Cytotoxicity against human T47D cells after 72 hrs by SRB assay; type: functional
[34] = tested on: A549; assay: Cell cycle arrest in human A549 cells assessed as accumulation at G0/G1 phase at IC50 after 48 hrs by FACS flow cytometric analysis relative to control; type: functional
[35] = tested on: A549; assay: Downregulation of cyclin D1 expression in human A549 cells by immunohistochemical analysis relative to control; type: functional
[36] = tested on: A549; assay: Upregulation of p27kip1 expression in human A549 cells by Western blotting analysis; type: functional
[37] = read-out: LC50 (the source's name)

## O=c1sc2cc(Nc3ncnc4c3cnn4-c3ccccc3)ccc2n1Cc1ccc(Cl)cc1
[1]
  inhibition: inactive

## O=C(NC1CCCCC1)c1ccc(Nc2ncnc3c2cnn3-c2ccccc2)cc1
[2]
  GI50: > 100 µM
  TGI: > 100 µM
[2]; [37]
  CC50: > 100 µM
[3]
  GI50: > 100 µM
  TGI: > 100 µM
[3]; [37]
  CC50: > 100 µM
[4]
  GI50: 4.38 µM
  pIC50: 4.18
  LC50: > 100 µM
  TGI: 51.3 µM
[5]
  GI50: 2.62 µM
  TGI: 8.78 µM
[5]; [37]
  CC50: 37.3 µM
[6]
  GI50: 3.35 µM
  TGI: 21.5 µM
[6]; [37]
  CC50: > 100 µM
[7]
  GI50: 15.8 µM
  TGI: > 100 µM
[7]; [37]
  CC50: > 100 µM
[8]
  GI50: 7.09 µM
  TGI: > 100 µM
[8]; [37]
  CC50: > 100 µM
[9]
  GI50: 6.4 µM
  TGI: > 100 µM
[9]; [37]
  CC50: > 100 µM
[10]
  GI50: 4.01 µM
  TGI: > 100 µM
[10]; [37]
  CC50: > 100 µM
[11]
  GI50: 57.8 µM
  TGI: > 100 µM
[11]; [37]
  CC50: > 100 µM
[12]
  GI50: 3.81 µM
  TGI: 17.1 µM
[12]; [37]
  CC50: 49 µM
[13]
  GI50: 3.82 µM
  TGI: 18.9 µM
[13]; [37]
  CC50: > 100 µM
[14]
  GI50: 1.71 µM
  TGI: 5.4 µM
[14]; [37]
  CC50: 35.9 µM
[15]
  GI50: 4.49 µM
  TGI: 22.3 µM
[15]; [37]
  CC50: > 100 µM
[16]
  GI50: 1.97 µM
  TGI: 4.94 µM
[16]; [37]
  CC50: 21 µM
[17]
  GI50: 67.8 µM
  TGI: > 100 µM
[17]; [37]
  CC50: > 100 µM
[18]
  GI50: 3.79 µM
  TGI: > 100 µM
[18]; [37]
  CC50: > 100 µM
[19]
  GI50: 21.7 µM
  TGI: > 100 µM
[19]; [37]
  CC50: > 100 µM
[20]
  GI50: 6.42 µM
  TGI: > 100 µM
[20]; [37]
  CC50: > 100 µM
[21]
  GI50: 14.4 µM
  TGI: 65.9 µM
[21]; [37]
  CC50: > 100 µM
[22]
  GI50: 14.3 µM
  TGI: > 100 µM
[22]; [37]
  CC50: > 100 µM
[23]
  GI50: 15.2 µM
  TGI: 95.2 µM
[23]; [37]
  CC50: > 100 µM
[24]
  GI50: 7.06 µM
  TGI: > 100 µM
[24]; [37]
  CC50: > 100 µM
[25]
  GI50: 3.47 µM
  TGI: 18.3 µM
[25]; [37]
  CC50: 65.5 µM
[26]
  GI50: 3.83 µM
  TGI: 39.4 µM
[26]; [37]
  CC50: > 100 µM
[27]
  GI50: 14 µM
  TGI: > 100 µM
[27]; [37]
  CC50: > 100 µM
[28]
  GI50: 2.43 µM
  TGI: 9.33 µM
[28]; [37]
  CC50: 56.9 µM
[29]
  GI50: 8.26 µM
  TGI: > 100 µM
[29]; [37]
  CC50: > 100 µM
[30]
  GI50: 10.6 µM
  TGI: 48.1 µM
[30]; [37]
  CC50: > 100 µM
[31]
  GI50: 74.1 µM
  LC50: > 100 µM
  TGI: > 100 µM
[32]
  GI50: 3.37 µM
  TGI: 34.2 µM
[32]; [37]
  CC50: > 100 µM
[33]
  GI50: 20.2 µM
  TGI: > 100 µM
[33]; [37]
  CC50: > 100 µM
[34]
  Activity: 11.9%
[35]
  Activity: 51%
[36]
  fold change (FC): 3
